We go through 21 compounds from USRE47689E1, “Compounds for treating spinal muscular atrophy” (PTC Therapeutics, Inc., priority 2011, dated 2019).

For series [1], the system named is SMN2 minigene (full length SMN2 minigene mRNA containing SMN2 exon 7). Briefly: SMN2 minigene mRNA splicing RT-qPCR assay in cultured cells. The conditions noted are these: Homo sapiens, HEK293-H, read-out: EC1.5x for production of full length SMN2 mRNA. It is filed as cell-based, human. The procedure, abridged:
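Full-length SMN2 minigene mRNA (exon 7 included), minigene-specific and not endogenous SMN, quantified by RT-qPCR multiplexed with GAPDH in stably transfected HEK293H cells after 24 h compound exposure at 37° C. Abundance from efficiency-corrected Ct, normalized to GAPDH and vehicle; EC1.5x reported as star bins.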

Another series relates to Smn protein. Briefly: Smn protein assay in cultured cells (SMN HTRF). It is filed as cell-based, human. The conditions noted are these: 48 hours; for EC1.5x (concentration giving 1.5-fold Smn protein increase): SMA Type 1 patient fibroblast cells (GM03813), 7-point concentration curve, SMN HTRF, concentration producing 1.5 times Smn protein vs DMSO vehicle control, read-out: EC1.5x for Smn protein expression; for maximum fold (Fold) increase of Smn protein: SMA patient fibroblast cells, 7-point concentration data, fold increase relative to vehicle control (SMN HTRF). The procedure, abridged:
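Smn in SMA fibroblast lysates, measured by anti-SMN HTRF after 48 h compound exposure; EC1.5x from fold change over vehicle.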
(In TR-FRET formats the signal depends on donor and acceptor labels being close together.)

Where [2] appears, read: HEK293H cells stably transfected with SMN2-A minigene, 24 hours, 7-point concentration curve, 1.5-fold relative to vehicle-treated cells.

Like-named read-outs stand apart in the source and are kept apart here. Where only a bound is given, the exact number is not on record here.

A word on the melting point: it is the temperature of the solid-liquid transition. Consider `COCCN1CCN(c2ccc3cc(-c4cc5cc(C)nc(C)c5o4)c(=O)oc3c2)CC1` [Compound 799, 3-(5,7-dimethylfuro[2,3-c]pyridin-2-yl)-7-[4-(2-methoxyethyl)piperazin-1-yl]-2H-chromen-2-one], for which the melting point was in the range of 235 to 237 °C. Moreover, the EC (1.5-fold) in series [1] (setting [2]) was below 0.1 µM. Also, in the series with Smn protein, the EC1.5x (concentration giving 1.5-fold Smn protein increase) is below 300 nM; the “maximum fold (Fold) increase of Smn protein” value (shortened to “maximum fold (Fold) increase”) was “**** (fold increase between >1.5 and ≤1.65)”.
On to `Cc1ccn2cc(-c3cc4ccc(N5C[C@H]6CC[C@@H](C5)N6C)cc4oc3=O)nc2c1` [Compound 535, 7-[(1R,5S)-8-methyl-3,8-diazabicyclo[3.2.1]oct-3-yl]-3-(7-methylimidazo[1,2-a]pyridin-2-yl)-2H-chromen-2-one], for which the melting point was in the range of 224 to 229 °C. Moreover, in series [1] (24 h), the EC (1.5-fold) was in the range of 1 to 3 µM. Moreover, the “maximum fold (Fold) increase” value in the series on Smn protein is recorded as “* (maximum fold increase of ≤1.2)”.
Take `CN1CCCN(c2ccc3cc(-c4nc(C(F)(F)F)cs4)c(=O)oc3c2)CC1` [Compound 238, 7-(4-methyl-1,4-diazepan-1-yl)-3-[4-(trifluoromethyl)-1,3-thiazol-2-yl]-2H-chromen-2-one]: the melting point is 218 to 225 °C. Further, the EC (1.5-fold) in series [1] (setting [2]) fell in the range of 1 to 3 µM. Moreover, the “maximum fold (Fold) increase” value with Smn protein is recorded as “* (maximum fold increase of ≤1.2)”.
`Cc1cn2cc(-c3cc4ccc(N5CCN6CCC[C@H]6C5)cc4oc3=O)nc2c(C)n1` [Compound 634, 3-(6,8-dimethylimidazo[1,2-a]pyrazin-2-yl)-7-[(8aS)-hexahydropyrrolo[1,2-a]pyrazin-2(1H)-yl]-2H-chromen-2-one] gave a melting point of 261 to 263 °C. Besides, the EC (1.5-fold) in series [1] (setting [2]) was below 0.1 µM. In the series with Smn protein, the EC1.5x (concentration giving 1.5-fold Smn protein increase) is below 300 nM and the “maximum fold (Fold) increase” value is on record as “***** (fold increase >1.65)”.
`C[C@@H]1CN(c2ccc3cc(-c4cn5ccsc5n4)c(=O)oc3c2)CCN1` [Compound 204, 3-(imidazo[2,1-b][1,3]thiazol-6-yl)-7-[(3R)-3-methylpiperazin-1-yl]-2H-chromen-2-one] returned a melting point of 233 to 237 °C. Further, in series [1] (setting [2]), the EC (1.5-fold) fell in the range of 0.1 to 0.3 µM. For the same compound, in the series on Smn protein, the “maximum fold (Fold) increase” value is “*** (fold increase between >1.35 and ≤1.5)”.
In turn, `C[C@H]1CN(c2ccc3cc(-c4cn5cccc(Cl)c5n4)c(=O)oc3c2)CCN1` [Compound 184, 3-(8-chloroimidazo[1,2-a]pyridin-2-yl)-7-[(3S)-3-methylpiperazin-1-yl]-2H-chromen-2-one] registered a melting point of 215 to 217 °C. In series [1] (setting [2]), the EC (1.5-fold) lay in the range of 0.3 to 1 µM. Also, in the series with Smn protein, the “maximum fold (Fold) increase” value is “*** (fold increase between >1.35 and ≤1.5)”.
Take `Cc1nc(C)c2cc(-c3cc4ccc(N5CCNCC5)cc4oc3=O)sc2n1` [Cpd 705, 3-(2,4-dimethylthieno[2,3-d]pyrimidin-6-yl)-7-(piperazin-1-yl)-2H-chromen-2-one]: the melting point was 275 °C (dec.). In addition, in series [1] (setting [2]), the EC (1.5-fold) was in the range of 0.1 to 0.3 µM. In the series with Smn protein, the “maximum fold (Fold) increase” value was “*** (fold increase between >1.35 and ≤1.5)”.
The compound `Cc1cc(Cl)cn2cc(-c3cc4ccc(N5C[C@@H](C)N[C@@H](C)C5)cc4oc3=O)nc12` [Compound 265, 3-(6-chloro-8-methylimidazo[1,2-a]pyridin-2-yl)-7-[(3R,5S)-3,5-dimethylpiperazin-1-yl]-2H-chromen-2-one] yielded a melting point of 271 to 281 °C. Also, the EC (1.5-fold) in series [1] (setting [2]) fell in the range of 1 to 3 µM. Moreover, in the series with Smn protein, the “maximum fold (Fold) increase” value is given as “* (maximum fold increase of ≤1.2)”.
Take `Cc1cn2cc(-c3cc4ccc(N5CCN(CCF)[C@@H](C)C5)cc4oc3=O)nc2c(C)n1` [Compound 894, 3-(6,8-dimethylimidazo[1,2-a]pyrazin-2-yl)-7-[(3S)-4-(2-fluoroethyl)-3-methylpiperazin-1-yl]-2H-chromen-2-one]: the melting point lay in the range of 192 to 195 °C. For the same compound, in series [1] (setting [2]), the EC (1.5-fold) was below 0.1 µM. For the same compound, in the series on Smn protein, the EC1.5x (concentration giving 1.5-fold Smn protein increase) was 300 to 1000 nM and the “maximum fold (Fold) increase” value is “***** (fold increase >1.65)”.
In turn, `Cc1ccc2nc(-c3cc4ccc(N5C[C@@H]6C[C@H]5CN6)cc4oc3=O)cn2c1` [Compound 173, 7-[(1S,4S)-2,5-diazabicyclo[2.2.1]hept-2-yl]-3-(6-methylimidazo[1,2-a]pyridin-2-yl)-2H-chromen-2-one] yielded a melting point of 212 to 215 °C. The EC (1.5-fold) in series [1] (setting [2]) fell in the range of 0.3 to 1 µM. Further, in the series with Smn protein, the “maximum fold (Fold) increase” value was “** (fold increase between >1.2 and ≤1.35)”.
Take `Cc1cc([N+](=O)[O-])c2nc(-c3cc4ccc(N5C[C@@H](C)N[C@@H](C)C5)cc4oc3=O)cn2c1` [Compound 701, 7-[(3R,5S)-3,5-dimethylpiperazin-1-yl]-3-(6-methyl-8-nitroimidazo[1,2-a]pyridin-2-yl)-2H-chromen-2-one]: the melting point is 290 to 300 °C. In addition, the EC (1.5-fold) in series [1] (setting [2]) fell in the range of 1 to 3 µM. Moreover, the “maximum fold (Fold) increase” value with Smn protein was “** (fold increase between >1.2 and ≤1.35)”.
As for `Cc1cn2cc(-c3cc4ccc(OCCNCC(C)O)cc4oc3=O)nc2c(C)n1` (stereo not shown) [Compound 961, 3-(6,8-dimethylimidazo[1,2-a]pyrazin-2-yl)-7-{2-[(2-hydroxypropyl)amino]ethoxy}-2H-chromen-2-one], the melting point was 185 to 188 °C. In series [1] (setting [2]), the EC (1.5-fold) is below 0.1 µM. Also, in the series on Smn protein, the EC1.5x (concentration giving 1.5-fold Smn protein increase) was below 300 nM; the “maximum fold (Fold) increase” value was “*** (fold increase between >1.35 and ≤1.5)”.
The compound `COc1cc(OC)cc(-c2cc3ccc(N4CCN[C@@H](C)C4)cc3oc2=O)c1` [Compound 413, 3-(3,5-dimethoxyphenyl)-7-[(3S)-3-methylpiperazin-1-yl]-2H-chromen-2-one] gave a melting point of 149 to 151 °C. Further, the EC (1.5-fold) in series [1] (setting [2]) was in the range of 1 to 3 µM. In the series on Smn protein, the “maximum fold (Fold) increase” value is recorded as “* (maximum fold increase of ≤1.2)”.
Turning to `COc1ccc(-c2cc3ccc(N4CCN[C@@H](C)C4)cc3oc2=O)cc1C` [Compound 542, 3-(4-methoxy-3-methylphenyl)-7-[(3S)-3-methylpiperazin-1-yl]-2H-chromen-2-one], the melting point lay within 127 to 131 °C. The EC (1.5-fold) in series [1] (setting [2]) was in the range of 1 to 3 µM. In addition, the “maximum fold (Fold) increase” value in the series on Smn protein is on record as “* (maximum fold increase of ≤1.2)”.
`COc1c(F)cc(F)cc1-c1cc2ccc(N3C[C@@H](C)N[C@@H](C)C3)cc2oc1=O` [Compound 540, 3-(3,5-difluoro-2-methoxyphenyl)-7-[(3R,5S)-3,5-dimethylpiperazin-1-yl]-2H-chromen-2-one] returned a melting point of 109 to 111 °C. Moreover, the EC (1.5-fold) in series [1] (setting [2]) was 3 to 30 µM. Besides, the “maximum fold (Fold) increase” value in the series with Smn protein is “* (maximum fold increase of ≤1.2)”.
Consider `CNCCCc1ccc2cc(-c3cc(F)c4nc(C)cn4c3)c(=O)oc2c1` [Compound 913, 3-(8-fluoro-2-methylimidazo[1,2-a]pyridin-6-yl)-7-[3-(methylamino)propyl]-2H-chromen-2-one], for which the melting point lay within 163 to 166 °C. In addition, in series [1] (setting [2]), the EC (1.5-fold) is below 0.1 µM. Also, in the series with Smn protein, the EC1.5x (concentration giving 1.5-fold Smn protein increase) was below 300 nM and the “maximum fold (Fold) increase” value is reported as “***** (fold increase >1.65)”.
Turning to `CN1CCN(c2ccc3cc(-c4nc5c(Cl)cccc5o4)c(=O)oc3c2)CC1` [Cpd 68, 3-(4-chloro-1,3-benzoxazol-2-yl)-7-(4-methylpiperazin-1-yl)-2H-chromen-2-one], the melting point lay in the range of 229 to 231 °C. For the same compound, in series [1] (setting [2]), the EC (1.5-fold) was 1 to 3 µM. Moreover, in the series with Smn protein, the “maximum fold (Fold) increase” value is “** (fold increase between >1.2 and ≤1.35)”.
The compound `C[C@@H]1CN(c2ccc3cc(-c4cn5cc(Cl)sc5n4)c(=O)oc3c2)C[C@H](C)N1` [Compound 473, 3-(2-chloroimidazo[2,1-b][1,3]thiazol-6-yl)-7-[(3R,5S)-3,5-dimethylpiperazin-1-yl]-2H-chromen-2-one] gave a melting point of 270 to 273 °C. Besides, the EC (1.5-fold) in series [1] (setting [2]) was 0.1 to 0.3 µM. Further, the “maximum fold (Fold) increase” value with Smn protein is “** (fold increase between >1.2 and ≤1.35)”.
The compound `CCN1CC[C@@H](Oc2ccc3cc(-c4cn5cc(C)nc(C)c5n4)c(=O)oc3c2)C1` [Compound 890, 3-(6,8-dimethylimidazo[1,2-a]pyrazin-2-yl)-7-{[(3R)-1-ethylpyrrolidin-3-yl]oxy}-2H-chromen-2-one] showed a melting point of 193 to 195 °C. Besides, the EC (1.5-fold) in series [1] (setting [2]) was below 0.1 µM. Besides, in the series on Smn protein, the EC1.5x (concentration giving 1.5-fold Smn protein increase) is below 300 nM and the “maximum fold (Fold) increase” value was “***** (fold increase >1.65)”.
`Cc1cc(C)c2nc(-c3cc4ccc(N5CCNCC5)cc4oc3=O)cn2c1` [Compound 260, 3-(6,8-dimethylimidazo[1,2-a]pyridin-2-yl)-7-(piperazin-1-yl)-2H-chromen-2-one] showed a melting point of 219 to 229 °C. Further, the EC (1.5-fold) in series [1] (setting [2]) lay within 0.3 to 1 µM. Besides, the “maximum fold (Fold) increase” value in the series with Smn protein is given as “* (maximum fold increase of ≤1.2)”.
On to `Cc1ccc2nc(-c3cc4c(F)cc(N5CCNCC5)cc4oc3=O)cn2c1` [Cpd 162, 5-fluoro-3-(6-methylimidazo[1,2-a]pyridin-2-yl)-7-(piperazin-1-yl)-2H-chromen-2-one], for which the melting point lay in the range of 265 to 270 °C. Moreover, in series [1] (setting [2]), the EC (1.5-fold) was 0.1 to 0.3 µM. Moreover, in the series with Smn protein, the EC1.5x (concentration giving 1.5-fold Smn protein increase) lay in the range of 300 to 1000 nM; the “maximum fold (Fold) increase” value is “*** (fold increase between >1.35 and ≤1.5)”.
